Measured values as given in ChEMBL document CHEMBL3885881, “DrugMatrix”.

Species: Rattus norvegicus
Test: DrugMatrix - Regimen: Daily Repeat
Assay type: toxicity, organism-based, Sprague-Dawley
Design: regimen Daily Repeat, gender Male, age 6-8 weeks
Details: in vivo, po, 0 mg/kg, route oral GAVAGE, dose level Control, vehicle .5 % CMC; for ABSOLUTE BASOPHIL / ABSOLUTE EOSINOPHIL / ABSOLUTE LYMPHOCYTE / ABSOLUTE MONOCYTE / ABSOLUTE SEGMENTED NEUTROPHIL / BASOPHIL / EOSINOPHIL / ERYTHROCYTE COUNT / HEMATOCRIT / HEMOGLOBIN / LEUKOCYTE COUNT / LYMPHOCYTE / MEAN CORPUSCULAR HEMOGLOBIN / MEAN CORPUSCULAR HEMOGLOBIN CONCENTRATION / MEAN CORPUSCULAR VOLUME / MONOCYTE / NEUTROPHIL / NUCLEATED RED BLOOD CELLS / PLATELET COUNT: tissue Blood
[1] = 72 h, tissue Plasma, time 3 day
[2] = 120 h, tissue Plasma, time 5 day

ClC(Br)Br [DIBROMOCHLOROMETHANE]
ABSOLUTE BASOPHIL (72 h, time 3 day): 0 CELLS/uL | ABSOLUTE EOSINOPHIL (72 h, time 3 day): 279.83 CELLS/uL | ABSOLUTE LYMPHOCYTE (72 h, time 3 day): 13152.5 CELLS/uL | ABSOLUTE MONOCYTE (72 h, time 3 day): 1013.83 CELLS/uL | ABSOLUTE SEGMENTED NEUTROPHIL (72 h, time 3 day): 2420.5 CELLS/uL | BASOPHIL (72 h, time 3 day): 0% | EOSINOPHIL (72 h, time 3 day): 1.67% | ERYTHROCYTE COUNT (72 h, time 3 day): 5.26 x10E6/uL | HEMATOCRIT (72 h, time 3 day): 32.22% | HEMOGLOBIN (72 h, time 3 day): 12.02 G/DL | LEUKOCYTE COUNT (72 h, time 3 day): 16.87 x10E3/uL | LYMPHOCYTE (72 h, time 3 day): 77.83% | MEAN CORPUSCULAR HEMOGLOBIN (72 h, time 3 day): 22.93 pg | MEAN CORPUSCULAR HEMOGLOBIN CONCENTRATION (72 h, time 3 day): 37.32 G/DL | MEAN CORPUSCULAR VOLUME (72 h, time 3 day): 61.4 fL | MONOCYTE (72 h, time 3 day): 6% | NEUTROPHIL (72 h, time 3 day): 14.5% | NUCLEATED RED BLOOD CELLS (72 h, time 3 day): 0 /100WBC | PLATELET COUNT (72 h, time 3 day): 1122.17 x10E3/uL | ALANINE AMINOTRANSFERASE [1]: 55.67 u/L | ALBUMIN [1]: 4.35 G/DL | ALKALINE PHOSPHATASE [1]: 362.67 u/L | ASPARTATE AMINOTRANSFERASE [1]: 96 u/L | BLOOD UREA NITROGEN [1]: 18 mg/dL | CARBON DIOXIDE [1]: 27.5 mmol/L | CHLORIDE [1]: 100.17 MEQ/L | CHOLESTEROL [1]: 74.5 mg/dL | CREATININE [1]: 0.17 mg/dL | GLUCOSE [1]: 141.67 mg/dL | LACTATE DEHYDROGENASE [1]: 682.5 u/L | LIPASE [1]: 10 u/L | PHOSPHORUS [1]: 11.5 mg/dL | POTASSIUM [1]: 6.41 MEQ/L | SODIUM [1]: 141.2 MEQ/L | TOTAL BILIRUBIN [1]: 0.18 mg/dL | TOTAL PROTEIN [1]: 5.88 G/DL | URIC ACID [1]: 1.4 mg/dL | ABSOLUTE BASOPHIL (120 h, time 5 day): 0 CELLS/uL | ABSOLUTE EOSINOPHIL (120 h, time 5 day): 18.5 CELLS/uL | ABSOLUTE LYMPHOCYTE (120 h, time 5 day): 8146.83 CELLS/uL | ABSOLUTE MONOCYTE (120 h, time 5 day): 204.83 CELLS/uL | ABSOLUTE SEGMENTED NEUTROPHIL (120 h, time 5 day): 1329.83 CELLS/uL | BASOPHIL (120 h, time 5 day): 0% | EOSINOPHIL (120 h, time 5 day): 0.17% | ERYTHROCYTE COUNT (120 h, time 5 day): 5.37 x10E6/uL | HEMATOCRIT (120 h, time 5 day): 33.17% | HEMOGLOBIN (120 h, time 5 day): 12.07 G/DL | LEUKOCYTE COUNT (120 h, time 5 day): 9.7 x10E3/uL | LYMPHOCYTE (120 h, time 5 day): 85.33% | MEAN CORPUSCULAR HEMOGLOBIN (120 h, time 5 day): 22.52 pg | MEAN CORPUSCULAR HEMOGLOBIN CONCENTRATION (120 h, time 5 day): 36.42 G/DL | MEAN CORPUSCULAR VOLUME (120 h, time 5 day): 61.78 fL | MONOCYTE (120 h, time 5 day): 1.83% | NEUTROPHIL (120 h, time 5 day): 12.67% | NUCLEATED RED BLOOD CELLS (120 h, time 5 day): 0 /100WBC | PLATELET COUNT (120 h, time 5 day): 907.5 x10E3/uL | ALANINE AMINOTRANSFERASE [2]: 58.5 u/L | ALBUMIN [2]: 4.4 G/DL | ALKALINE PHOSPHATASE [2]: 377.67 u/L | ASPARTATE AMINOTRANSFERASE [2]: 140.33 u/L | BLOOD UREA NITROGEN [2]: 15.33 mg/dL | CARBON DIOXIDE [2]: 32.17 mmol/L | CHLORIDE [2]: 100 MEQ/L | CHOLESTEROL [2]: 71.83 mg/dL | CREATININE [2]: 0.18 mg/dL | GLUCOSE [2]: 185 mg/dL | LACTATE DEHYDROGENASE [2]: 241.5 u/L | LIPASE [2]: 9.5 u/L | PHOSPHORUS [2]: 13.02 mg/dL | POTASSIUM [2]: 6.45 MEQ/L | SODIUM [2]: 143.45 MEQ/L | TOTAL BILIRUBIN [2]: 0.22 mg/dL | TOTAL PROTEIN [2]: 6.1 G/DL
